# According to article PMC10035370, “Targeting Tumor Angiogenesis with the Selective VEGFR-3 Inhibitor EVT801 in Combination with Cancer Immunotherapy” (Cancer Research Communications, 2022):
# Legend:
# VEGFR-2 = VEGFR-2 (Homo sapiens, UniProt P35968); test: Viability of Ba/F3 cells dependent on VEGFR-2; format: cell-based; parameters: fusion proteins consisting of constructs for IL-3 independent survival and either VEGFR-2 or VEGFR-3 kinase domains; expressed in transfected cells; host or cells: Ba/F3 (stably transduced)
# Procedure: Ba/F3 cells were transduced and selected to stably express fusion proteins consisting of constructs for IL-3 independent survival and either VEGFR-2 or VEGFR-3 kinase domains or without the kinase domain. Proliferation and survival of cell lines was dependent on expression of the transcript. Cells in logarithmic-phase growth were harvested and 5 x 10^3 cells were distributed into each well of a 384-well plate in 50 µL of medium. Then, 50 nL of EVT801, SAR401849 or their vehicle solvent were added to appropriate wells. After 48 h, viability was determined by addition of 10 µL CellTiterGlo reagent (Promega). Luminescence was determined as relative light units (RLU) in counts per second.
# 4T1 tumors = test: 4T1 mammary carcinoma mouse model, with anti-CTLA-4; format: in vivo, mice
# Procedure: The 4T1 mammary carcinoma mouse models were used as reported previously ([26]). Briefly, 1 × 10^5 4T1 cells were implanted into mammary fat pads of BALB/c mice. […] Tumors were measured two to three times weekly with calipers. The tumor volume (V) was calculated using the formula V = 0.52 × a^2 × b (a: smallest tumor diameter; b: largest tumor diameter). The tumors, lungs, and axillary lymph nodes were removed at day 21 for treatment with anti-PD-1, and day 28 for treatment with anti-CTLA-4. The tumors and the lungs were embedded in paraffin for histology studies. Intraperitoneal injection (10 mg/kg of antibody diluted at 1 mg/mL) was performed at day 6, day 11, and day 16 for treatment with anti-PD-1, and at day 6, day 11, day 16, and day 21 for treatment with anti-CTL-4 by using a 26G needle fitted to a plastic syringe in the right lower quarter of mice abdomen. The metastatic scoring was determined as follows: (0) no metastasis; ([1]) 1 to 20 metastases < 50 μm; ([2]) between 21 and 50 metastases < 50 μm; ([3]) 1 or more metastases > […]; ([4]) 1 or more metastases > […].
# Whole blood samples were treated twice with ACK lysing buffer (Thermo Fisher Scientific, A1049201) to lyse red blood cells. Cell suspension were incubated for 15 minutes on ice in blocking buffer (FACS buffer: PBS 1 X, 1% FBS, 5 mmol/L Ethylene Diamine Tetra acetic Acid (EDTA) containing 3% rat serum, 3% mouse serum, 1:660 FC blocking antibody). Cell suspension were stained with an antibody mix either for myeloid-derived suppressor cell (MDSC) staining [anti-CD45 PE-Vio770 (Miltenyi Biotec, 130-110-799), anti-CD11b APC (eBioscience, 17-0112-82), anti-Ly6C AF700 (BD, 561237), anti-Ly6G BV421 (BD, 562737), anti-F4/80 BV510 (BD, 743280), anti-IA/I-E (MHCII), PercpCy5.5 (BD, 562363), anti-CD124 PE (BioLegend, 144804) or anti-rat IgG2bPE (Ozyme, BLE400608) isotype control, and the green fluorescent reactive dye (Thermo Fisher Scientific, L34960)], or for T-cell staining [anti-CD45 PE-Vio770 (Miltenyi Biotec, 130-110-799), anti-Thy1 APC-Cy7 (BioLegend, 105328), anti-CD4 PercpVio-700 (Miltenyi Biotec, 130-109-497), anti-CD8 BV510 (BD, 563068), anti-CD69 BV421 (BD 562920) or anti-rat IgG1a-BV421 (BD, 562919), and the green fluorescent reactive dye (Thermo Fisher Scientific, L34960)]. After incubation for 30 minutes at 4°C in the dark, cells were washed and suspended in FACS buffer. A total of 50 μL of CountBright Absolute counting beads (Thermo Fisher Scientific, C36950) were added just before cell acquisition on a FACS Fortessa X20 (Becton Dickinson). Analysis was performed with the FlowJo software. For calculation of cell concentration, the following formula was used: Concentration of cells/μL = (number of cell events/number of bead events) × (assigned bead count of the lot/volume of analyzed sample). Monocytic MDSCs (M-MDSC) were characterized as MHC-II^neg/CD11b^+/Ly6C^+/Ly6G^neg, whereas polymorphonuclear MDSCs (PMN-MDSC) were characterized as MHC-II^neg/CD11b^+/Ly6C^neg/Ly6G^+, as described previously ([31]). Among those populations, CD124^+ cells were considered as the activated subpopulations ([32]).
# Blood was centrifuged at 8,000 rpm, for 5 minutes, at 4°C and the plasma was collected by harvesting the supernatant and stored at −80°C. Plasma samples were thawed at 4°C extemporaneously for MesoScale Discovery (MSD) analysis on a U-PLEX-4 Assay coated plate (U-PLEX Mouse KC, U-PLEX Mouse MIP-1α/CCL3, U-PLEX Mouse MIP-1β/CCL4, U-PLEX Mouse Rantes/CCL5 K15069L-1, Meso Scale Discovery). Analysis was performed following manufacturer's instructions.
# [1] = endpoint, 30 mg/kg twice per day
# Chain of VEGFR-2 (P35968 834-1162 limits assumed, species assumed): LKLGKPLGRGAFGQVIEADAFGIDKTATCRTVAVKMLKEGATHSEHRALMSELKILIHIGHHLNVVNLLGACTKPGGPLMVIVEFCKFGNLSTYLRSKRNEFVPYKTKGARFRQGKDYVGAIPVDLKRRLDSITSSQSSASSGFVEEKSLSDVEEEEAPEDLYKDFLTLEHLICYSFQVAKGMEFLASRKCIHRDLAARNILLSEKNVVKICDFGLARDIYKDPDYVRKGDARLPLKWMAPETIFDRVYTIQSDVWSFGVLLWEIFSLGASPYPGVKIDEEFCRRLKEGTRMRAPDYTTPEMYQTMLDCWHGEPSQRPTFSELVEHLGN
smiles,measurement,setting,value
CCn1c(N)c(-c2ncc[nH]2)c(=O)c2ccc(C#C[C@@](C)(O)COC)nc21 [EVT801],IC50,VEGFR-2,248 nM
same,"reduction in circulation of each activated (CD124+) MDSC subpopulation (PMN-MDSCs, M-MDSCs) in the blood",4T1 tumors; 14 hours after the last dosing,2 fold
same,increase in number of circulating CD8+ T cells,4T1 tumors; endpoint,30%
same,change in circulating CCL4 levels,4T1 tumors; [1],−50%
same,change in circulating CCL5 levels,4T1 tumors; [1],−30%
same,circulating CCL3 levels,4T1 tumors; [1],unchanged
same,"T/C ratio, tumor growth","4T1 tumors; orthotopic, EVT801 30 mg/kg twice per day, anti-CTLA-4 twice per week, or both",53%
